EPA's ToxValDB 9.5
Where “and” joins values, the source holds several entries; their conditions need not be identical. Equal values may be shown once.

Columns and labels:
Canidae = conditions: Beagle
Rattus norvegicus [1] = conditions: for LD50: acute
Rattus norvegicus [2] = conditions: oral
Neovison sp. = conditions: repeat dose other; oral; Mink
Rattus norvegicus [3] = conditions: oral, M/F
Rattus norvegicus [4] = conditions: reproduction developmental, oral, gavage
Mus musculus [5] = conditions: oral, M/F; for NOEL: duration: 2 years, Albino, increased liver weight
Rattus norvegicus [6] = conditions: oral; remark: listed apart in the source
Oryctolagus sp. = conditions: New Zealand; for NOAEL: duration: 13 days, oral, gavage
Rattus norvegicus [7] = conditions: repeat dose other; oral
Mus musculus [8] = conditions: inhalation
Primate = conditions: inhalation
Rattus norvegicus [9] = conditions: short-term; duration: 28 days; oral; gavage; M/F; Sprague-Dawley; Clinical Observation: Tremor Salivation + Body Weight Changes: decrease + Food Consumption: decrease + Water Consumption: increase + …
[10] = subchronic, duration: 90 days, oral, diet
[11] = short-term, duration: 28 days, oral, gavage
[12] = subchronic, duration: 90 days, oral, diet, Sprague-Dawley
[13] = chronic, duration: 2 years, diet, liver weight increased males
[14] = chronic, duration: 78 weeks, diet, CD1, Increased incidences of fatty change & hypertrophy in hepatocytes
[15] = reproduction developmental, duration: 10 days, oral, gavage, F, CD
[16] = reproduction developmental, duration: 20 days, F, CD1
[17] = reproduction developmental, duration: 6 days, Macaca Fascicularis
[18] = developmental, duration: 11 days, inhalation, Sprague-Dawley
[19] = short-term, duration: 4 weeks, inhalation, Sprague-Dawley
[20] = subchronic, duration: 90 days, oral, gavage, Sprague-Dawley
[21] = subchronic, duration: 90 days, reduced body weight and neurotoxicity

SMILES: CCCCCCCCCCCCCCCCc1c(Oc2ccccc2S(=O)(=O)O)cccc1S(=O)(=O)O.[Na+].[Na+] [Disodium hexadecyl(sulfophenoxy)benzenesulfonate]
- NOAEL (Canidae; [10]): 200 mg/kg-day
- LD50 (Rattus norvegicus [1]; dermal, occlusive, Sprague-Dawley): > 2000 mg/kg
- LD50 (Rattus norvegicus [1]; dermal, occlusive, Wistar): > 2000 mg/kg
- LD50 (Rattus norvegicus [1]; oral, gavage): > 3980 mg/kg
- LD50 (Rattus norvegicus [1]; oral, gavage, Fischer 344): 1500 mg/kg and > 2000 mg/kg
- LD50 (Rattus norvegicus [1]; oral, gavage, Sprague-Dawley): 7740 mg/kg and > 5000 mg/kg
- LD50 (Rattus norvegicus [1]; oral, gavage, Wistar): > 5000 mg/kg
- LOAEL (Rattus norvegicus [1]; [11]): 1000 mg/kg-day
- NOAEL (Rattus norvegicus [1]; [11]): 250 mg/kg-day
- LOAEL (Rattus norvegicus [1]; [12]): 200 mg/kg-day
- NOAEL (Rattus norvegicus [1]; [12]): 100 mg/kg-day

SMILES: ClC1=C(Cl)C2(Cl)C3C(Cl)C=CC3C1(Cl)C2(Cl)Cl (centres undefined) [Heptachlor]
- NOEL (Rattus norvegicus [2]; chronic, duration: 2 years, diet, Liver: Increased weight): 0.15 mg/kg-day
- LOAEL (Neovison sp.): 1 mg/kg-day
- NOAEL (Neovison sp.): 0.1 mg/kg-day
- LEL (Rattus norvegicus [3]; [13]): 0.25 mg/kg-day
- NOEL (Rattus norvegicus [3]; [13]): 0.15 mg/kg-day
- LOAEL (Rattus norvegicus [4]; duration: 14 days, F, CFT-Wistar, reproductive): 1.8 mg/kg-day
- LOAEL (Rattus norvegicus [4]; duration: 364 days, M/F, Sprague-Dawley, immunological, neurological): 0.03 mg/kg-day

SMILES: C[C@](C#N)(COc1cc(C#N)ccc1C(F)(F)F)NC(=O)c1ccc(SC(F)(F)F)cc1 [Monepantel]
- LOAEL (Mus musculus [5]; [14]): 5.5 mg/kg-day
- NOAEL (Mus musculus [5]; [14]): 1.8 mg/kg-day

SMILES: O=S(=O)(O)c1ccc(Cl)cc1 [4-Chlorobenzenesulphonic acid]
- NOAEL (Rattus norvegicus [6]; subchronic, duration: 32 days, gavage, M/F, S-D): 1800 mg/kg-day

SMILES: O=C(O)CCCC(=O)O [Glutaric acid]
- LD50 (Oryctolagus sp.; acute, dermal, occlusive): > 10000 mg/kg
- NOAEL (Oryctolagus sp.; developmental): > 500 mg/kg-day
- NOAEL (Oryctolagus sp.; reproduction developmental, F): > 500 mg/kg-day
- LOAEL (% diet) (Canidae; [10]): 3
- NOAEL (% diet) (Canidae; [10]): ≥ 2
- LD50 (Rattus norvegicus [1]; oral, Sprague-Dawley): 2750 mg/kg
- NOAEL (Rattus norvegicus [1]; developmental, duration: 10 days, oral, gavage, CD): 1300 mg/kg-day
- LOAEL (Rattus norvegicus [1]; [15]): 400 mg/kg-day
- NOAEL (Rattus norvegicus [1]; [15]): 125 mg/kg-day
- NOAEL (Rattus norvegicus [1]; reproduction developmental, duration: 10 days, oral, gavage, F, Sprague-Dawley): ≥ 1000 mg/kg-day
- LOAEL (% diet) (Rattus norvegicus [1]; [12]): 2
- NOAEL (% diet) (Rattus norvegicus [1]; [12]): ≥ 1

SMILES: CSc1nc2cc(Oc3cccc(Cl)c3Cl)c(Cl)cc2[nH]1 [Triclabendazole]
- NOEL (Mus musculus [5]; Chronic / dietary, feed): 0.27 mg/kg-day
- NOEL (Mus musculus [5]; chronic, diet): 0.27 mg/kg-day

SMILES: CO [Methanol]
- NOEL (Rattus norvegicus [2]; subchronic, duration: 90 days, gavage, Blood: Increased alkaline phosphatase + Blood: Increased SGPT + Brain: Decreased weight): 500 mg/kg-day
- LOAEL (Rattus norvegicus [7]): 250 mg/kg-day
- NOAEL (Rattus norvegicus [7]): 50 mg/kg-day
- LOAEL (Mus musculus [8]; developmental, duration: 10 days, CD1): 2620 mg/m3
- LOAEL (Mus musculus [8]; developmental, duration: 20 days, CD1): 13100 mg/m3
- NOAEL (Mus musculus [8]; reproduction developmental, duration: 18 months, B6C3F1): > 1310 mg/m3
- NOAEL (Mus musculus [8]; reproduction developmental, duration: 10 days, F, CD1): > 19700 mg/m3
- LOAEL (Mus musculus [8]; [16]): ≤ 19700 mg/m3
- NOAEL (Mus musculus [8]; [16]): ≥ 13100 mg/m3
- NOAEL (Primate; developmental, duration: 120 days, Macaca Fascicularis): > 2360 mg/m3
- LOAEL (Primate; [17]): 6550 mg/m3
- NOAEL (Primate; [17]): 3930 mg/m3
- NOAEL (Primate; reproduction developmental, duration: 120 days, F, Macaca Fascicularis): > 2360 mg/m3
- NOAEL (Primate; reproduction developmental, duration: 365 days, generation: F0): > 2360 mg/m3
- LOAEL (Rattus norvegicus [1]; [18]): ≤ 6550 mg/m3
- NOAEL (Rattus norvegicus [1]; [18]): ≥ 1310 mg/m3
- LOAEL (Rattus norvegicus [1]; developmental, duration: 19 days, inhalation, Sprague-Dawley): ≤ 26200 mg/m3
- NOAEL (Rattus norvegicus [1]; reproduction developmental, duration: 11 days, inhalation, F, Sprague-Dawley): > 1310 mg/m3
- LOAEL (Rattus norvegicus [1]; reproduction developmental, duration: 19 days, inhalation, F, Sprague-Dawley): ≤ 26200 mg/m3
- NOAEL (Rattus norvegicus [1]; reproduction developmental, duration: 365 days, inhalation, Sprague-Dawley, generation: F0): 131 mg/m3
- NOAEL (Rattus norvegicus [1]; reproduction developmental, duration: 365 days, inhalation, Sprague-Dawley, generation: F1): 131 mg/m3
- NOAEL (Rattus norvegicus [1]; reproduction developmental, duration: 365 days, inhalation, Sprague-Dawley, generation: F2): 131 mg/m3
- LOAEL (Rattus norvegicus [1]; [19]): 6550 mg/m3
- NOAEL (Rattus norvegicus [1]; [19]): ≥ 3930 mg/m3
- LOAEL (Rattus norvegicus [1]; [20]): 2500 mg/kg-day
- NOAEL (Rattus norvegicus [1]; [20]): > 500 mg/kg-day

SMILES: FC(F)F [Trifluoromethane]
- LOAEL (Canidae; repeat dose other, inhalation): > 14300 mg/m3

SMILES: Cc1ccccc1O [o-Cresol]
- NOAEL (Neovison sp.): 219 mg/kg-day
- LOAEL (Rattus norvegicus [3]; [21]): 150 mg/kg-day
- NOAEL (Rattus norvegicus [3]; [21]): 50 mg/kg-day

SMILES: Nc1cccc(O)c1 [3-Aminophenol]
- NOAEL (Rattus norvegicus [9]): 240 mg/kg-day
- NOAEL (Rattus norvegicus [6]; short-term, duration: 18 days, gavage, M/F, Sprague-Dawley, Whole Body Effects): 80 mg/kg-day

SMILES: Cc1ccc(N)c(C)c1 [2,4-Dimethylaniline]
- LOAEL (Rattus norvegicus [6]; chronic, duration: 6 months, diet, M, Osborne-Mendel): 18 mg/kg-day

SMILES: O=S(=O)(c1ccccc1)c1ccccc1 [Diphenylsulfone]
- NOAEL (Rattus norvegicus [6]; subchronic, duration: 13 weeks, diet, M): 8 mg/kg-day
